Assay results: US20050014783A1, “Use of Rho-kinase inhibitors in the treatment of aneurysm and cardiac hypertrophy” (Schering Aktiengesellschaft, priority 2003, published 2005)
Marks after values point to notes of the source that are not given here.

Key:
Rho-kinase = conditions: cited from earlier work
[1] = tested on: ApoE-KO mice infused with angiotensin II; experiment: Angiotensin II-induced abdominal aortic aneurysm in apoE-KO mice; assay type: in vivo
Excerpt: Infusion of apoE-KO mice (Jackson Laboratories, Bar Harbor, Me.) with angiotensin II has been reported to lead to the formation of large abdominal aortic aneurysms (Daugherty et al. (2000) J. Clin. Invest. 105:1605-1612). This system can be used as a model system in which to study the effects of the Rho-kinase inhibitors of the present invention on these conditions, using the methods described in Wang et al. (2001) American J. Path. 159:1455-1464. (See Example 1).
(§1) For some parameters measured, comparative data was also collected for C57 Black mice, the mouse strain from which the ApoE-KO mouse is derived.

[2] = tested on: ApoE-KO mice infused with angiotensin II; experiment: Angiotensin II-induced cardiac hypertrophy in apoE-KO mice; assay type: in vivo
[3] = tested on: supra-renal aortic wall in apoE-KO mice; experiment: Apoptosis in aortic tissue (TUNEL, cell death detection ELISA, H & E staining); assay type: in vivo; conditions: for apoptosis: TUNEL staining, supra-renal aorta, FIG. 2
Procedure: FIG. 3. To further quantify apoptosis in the aortic tissue, cell death detection ELISA assay was performed.

[4] = tested on: ApoE-KO mice infused with angiotensin II; experiment: Blood pressure, heart rate, serum cholesterol, aortic arch lesion area and aortic stiffness in Ang II-infused apoE-KO mice; assay type: in vivo
Excerpt: as §1

SMILES: O=S(=O)(c1cccc2c(O)nccc12)N1CCCNCC1 [hydroxyfasudil]
- specificity of the inhibitory effect on Rho-kinase (Rho-kinase): more specific inhibitory effect on Rho-kinase

SMILES: O=S(=O)(c1cccc2cnccc12)N1CCCNCC1 [Fasudil, Hexahydro-1-(5-isoquinolylsulfonyl)-1H-1,4-diazepine]
- Diameter (mm) ([1]; Ang II for 30 days, fasudil in drinking water, postmortem direct measurement): 1.5 ± 0.1 mm
- Incidence (%) ([1]; abdominal aortic aneurysm, Ang II 1.44 mg/kg per day for 30 days, fasudil 1 mg/ml in drinking water): 41# %
- incidence of abdominal aortic aneurysm formation ([1]; oral, >100 mg/kg daily in drinking water, n=20, p<0.05 vs. controls): 35%
- decrease in the size of aneurysms ([1]; versus Ang II treated ApoE-KO mice, FIG. 1, fasudil 0.5 mg/ml and 1 mg/ml in drinking water): 29%
- Heart/body Wt ([2]; Ang II for 30 days, fasudil in drinking water): 6.1 ± 0.1
- Myocyte (mm^2) ([2]; cardiomyocyte size, Ang II for 30 days, fasudil in drinking water): 262 ± 16# mm^2
- gene expression of ANP and collagen III ([2]; heart of apoE-KO mice): normalized
- angiotensin-II induced cardiac hypertrophy ([2]; measured by heart weight or cardiomyocyte size): significantly reduced
- cardiac function ([2]; mouse, in vivo): improved
- perivascular fibrosis ([2]; mouse, in vivo): reduced
- decrease in the degree of cardiac hypertrophy ([2]; versus Ang II treated ApoE-KO mice, FIG. 4, fasudil 0.5 mg/ml and 1 mg/ml): 14%
- aortic wall changes (adventitial fibrosis, inflammation, destruction of smooth muscle cells and elastin) ([3]; H & E staining, high dose fasudil, animals with aneurysm): ameliorated, but not fully eliminated
- apoptosis [3]: reducing apoptosis
- apoptosis ([3]; listed as fasudil): decreased apoptosis
- cytosolic DNA fragmentation increased by Ang II ([3]; cell death detection ELISA, aortic tissue, P<0.01, FIG. 3): abolished
- Lesion (%) ([4]; aortic arch atherosclerotic lesion area, Ang II for 30 days, fasudil in drinking water): 25 ± 3%
- effect on aortic arch atherosclerotic lesion area ([4]; mouse, in vivo): no effect
- effect on aortic stiffness ([4]; mouse, in vivo): no effect
- effect on serum cholesterol ([4]; mouse, in vivo): no effect
- effect on heart rate ([4]; tail cuff instrumentation): no effect
- effect on systolic blood pressure (SBP) ([4]; tail cuff instrumentation): no effect
